Reference: PMC6556873, “Rapid Covalent-Probe Discovery by Electrophile-Fragment Screening” (Journal of the American Chemical Society, 2019)
Read-outs that look alike come from different tables or passages of the source.

Assays:
in vitro [1] = assay: in vitro; set-up: species or system CCD841, HEK293; conditions: human, hb2 cells, read-out: HB-2 Cells Viability (%)
BSA = target: T1, BSA (Bos taurus, UniProt P02769); set-up: Intact protein LC/MS covalent labelling, fragments in pools of five, 200 uM each, 4 °C; conditions: 24 h, 4 °C, pool of five; 200 µM; covalent
T1 construct: gene ALB
Experimental: (§1) Incubations were performed at 200 μM for each compound and 2 μM of protein (10 μM for BSA) for 24 h at 4 °C with moderate shaking. Incubation buffers varied among proteins (PBS pH 7.4 for QSOX1 and BSA; 10 mM HEPES pH 7.5, 0.3 M NaCl, 0.5 mM TCEP for PCAF, UPS8, and NUDT7; […]; 10 mM Na2HPO4 pH 7.5 100 mM NaCl 5 mM β-mercaptoethanol for NV3CP; 20 mM Na phosphate pH 7.5 for NNMT; […]. The reaction was stopped by quenching with formic acid, 0.4% final concentration. Each protein was incubated with the electrophilic library in pools of five compounds per well. The pool’s composition maximized the difference in mass between fragments in the same well. Incubations were performed with each fragment at 200 μM, for 24 h at 4 °C, to allow the screening of proteins that are not stable for long time periods at higher temperatures. Following incubation, we used intact protein [compound left out] chromatography/mass spectrometry (LC/MS) to identify the fragments and quantify their labeling (Figure 3A). […] There was good agreement between the percent of labeling of NUDT7 by 100 random individual compounds and that obtained in pools of five (R^2=0.78; Figure S6 and Data set 2 in the Supporting Information).

OTUB2 (OTUB2A) = target: T2, OTUB2 (OTUB2A) (Homo sapiens, UniProt Q96DC9); set-up: Intact protein LC/MS covalent labelling, fragments in pools of five, 200 uM each, 4 °C; conditions: 24 h, 4 °C, pool of five; 200 µM; covalent
T2 construct: full length residues 1-234, E. coli BL21(DE3)-R3, His tag removed by TEV, construct 27312 Da
T2 sequence (Q96DC9 1-234): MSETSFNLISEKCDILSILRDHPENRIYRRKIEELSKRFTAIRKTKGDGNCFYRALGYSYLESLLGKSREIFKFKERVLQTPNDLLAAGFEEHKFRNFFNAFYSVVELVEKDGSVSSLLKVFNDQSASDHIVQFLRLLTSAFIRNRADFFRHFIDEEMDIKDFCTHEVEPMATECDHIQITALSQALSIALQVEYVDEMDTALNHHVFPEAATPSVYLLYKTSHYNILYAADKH
Experimental: as §1

PCAF = target: T3, PCAF (Homo sapiens, UniProt Q92831); set-up: Intact protein LC/MS covalent labelling, fragments in pools of five, 200 uM each, 4 °C; conditions: 24 h, 4 °C, pool of five; 200 µM; covalent
T3 construct: gene KAT2B
Experimental: as §1

in vitro [2] = assay: in vitro; set-up: species or system HB2, CCD841; conditions: human, hek293 cells
in vitro [3] = assay: in vitro; set-up: species or system HB2, HEK293; conditions: human, ccd841 cells
NUDT7 = target: T4, NUDT7 (Homo sapiens, UniProt P0C024); set-up: Intact protein LC/MS covalent labelling, fragments in pools of five, 200 uM each, 4 °C; conditions: 24 h, 4 °C, pool of five; 200 µM; covalent
T4 construct: residues 14-235, E. coli, pNIC28-Bsa4, N-terminal His6 tag removed by TEV, construct 26672 Da
Experimental: as §1

T4 sequence (P0C024 14-235): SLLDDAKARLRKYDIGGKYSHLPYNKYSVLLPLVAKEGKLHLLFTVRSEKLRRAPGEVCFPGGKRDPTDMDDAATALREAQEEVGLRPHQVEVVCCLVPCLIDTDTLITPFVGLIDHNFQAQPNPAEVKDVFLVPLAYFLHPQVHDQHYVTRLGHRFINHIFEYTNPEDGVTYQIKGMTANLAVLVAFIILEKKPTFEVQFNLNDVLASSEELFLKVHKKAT
T3 sequence (Q92831 whole entry, the tested form may be a part): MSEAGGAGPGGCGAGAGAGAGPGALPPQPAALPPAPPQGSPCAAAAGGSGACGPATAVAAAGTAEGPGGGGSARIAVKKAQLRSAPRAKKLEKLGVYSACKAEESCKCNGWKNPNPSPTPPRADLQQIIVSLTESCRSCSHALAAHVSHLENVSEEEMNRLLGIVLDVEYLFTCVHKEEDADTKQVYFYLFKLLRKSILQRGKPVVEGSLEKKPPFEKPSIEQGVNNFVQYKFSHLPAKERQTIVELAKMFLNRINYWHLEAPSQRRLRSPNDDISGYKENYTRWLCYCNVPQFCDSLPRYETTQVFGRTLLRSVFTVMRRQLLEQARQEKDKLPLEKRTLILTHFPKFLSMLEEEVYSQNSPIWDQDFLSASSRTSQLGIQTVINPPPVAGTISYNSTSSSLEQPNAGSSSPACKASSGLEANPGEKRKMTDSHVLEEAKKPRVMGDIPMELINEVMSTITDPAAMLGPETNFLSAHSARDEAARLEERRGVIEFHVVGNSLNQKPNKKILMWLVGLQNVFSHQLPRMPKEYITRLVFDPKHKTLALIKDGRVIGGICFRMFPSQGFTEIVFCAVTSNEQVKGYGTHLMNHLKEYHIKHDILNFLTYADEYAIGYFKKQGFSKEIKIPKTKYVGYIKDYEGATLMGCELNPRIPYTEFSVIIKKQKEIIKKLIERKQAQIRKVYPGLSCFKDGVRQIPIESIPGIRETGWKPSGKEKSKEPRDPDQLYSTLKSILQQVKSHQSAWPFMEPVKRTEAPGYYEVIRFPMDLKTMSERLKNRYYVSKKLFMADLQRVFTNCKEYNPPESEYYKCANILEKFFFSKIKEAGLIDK
T1 sequence (P02769 whole entry, the tested form may be a part): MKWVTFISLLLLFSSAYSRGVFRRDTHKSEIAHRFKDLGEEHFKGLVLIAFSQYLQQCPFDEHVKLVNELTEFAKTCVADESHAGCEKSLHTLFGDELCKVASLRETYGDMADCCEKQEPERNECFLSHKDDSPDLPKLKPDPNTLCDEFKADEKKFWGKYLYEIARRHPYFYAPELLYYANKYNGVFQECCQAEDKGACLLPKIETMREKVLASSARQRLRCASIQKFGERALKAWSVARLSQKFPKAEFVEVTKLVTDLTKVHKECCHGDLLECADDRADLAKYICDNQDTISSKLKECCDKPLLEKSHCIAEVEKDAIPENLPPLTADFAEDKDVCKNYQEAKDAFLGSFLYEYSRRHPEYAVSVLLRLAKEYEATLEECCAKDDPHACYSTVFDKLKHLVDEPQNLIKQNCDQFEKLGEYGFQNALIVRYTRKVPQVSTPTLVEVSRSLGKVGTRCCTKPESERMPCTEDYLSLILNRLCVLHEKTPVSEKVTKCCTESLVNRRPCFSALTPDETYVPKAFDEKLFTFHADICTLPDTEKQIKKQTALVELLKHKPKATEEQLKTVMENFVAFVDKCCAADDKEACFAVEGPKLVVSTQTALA

BSA (BSA)	OTUB2 (OTUB2 (OTUB2A))	PCAF (PCAF)	NUDT7 (NUDT7)	SMILES	viability at 48 h, 10 µM (in vitro [1]) [%]	viability at 48 h, 10 µM (in vitro [2]) [%]	viability at 48 h, 10 µM (in vitro [3]) [%]
0	0	0	–	O=C(CCl)Nc1nncs1 [PCM-0102427]	89.6	99.2	91
0	0	0	–	C=CC(=O)N1CCCC(c2cnn(C)c2)C1 (stereo not shown) [PCM-0102641]	107	81.4	115
0	0	0	–	C=CC(=O)Nc1nc(-c2ccc(O)cc2)cs1 [PCM-0102884]	75.2	65.4	80
0	0	0	–	C=CC(=O)NC(C)(C)c1cc(C(F)(F)F)on1 [PCM-0102528]	99.9	104	109
0	0	0	0	Cc1ccccc1CN1CCCN(C(=O)CCl)CC1.Cl [PCM-0102911]	–	–	–
0	0	0	0	CN(C(=O)CCl)c1ccccc1 [PCM-0102368]	–	–	–
0	0	0	–	O=C(CCl)N1CCC2CCCCC2C1 (stereo not shown) [PCM-0102474]	24.3	15.3	54.4
0	0.28	0	0	O=C(CCl)NCc1ccccc1 [PCM-0102538]	–	–	–
0	0	0	0	Cc1ccc(CN2CCCN(C(=O)CCl)CC2)cc1.Cl [PCM-0103056]	–	–	–
0	0	0	0	C=CC(=O)N1CCc2ncsc2C1 [PCM-0102847]	–	–	–
0.2	0	0	0	C=CC(=O)Nc1ccc(F)cc1 [PCM-0102111]	–	–	–
0	0	0	–	Cc1cc(SC#N)ccc1NC(=O)CCl [PCM-0102508]	14.1	27.8	19.6
0	0.09	0	–	C=CC(=O)N1CCCC(Cn2ccnn2)C1 (stereo not shown) [PCM-0102647]	101	102	102
0	0	0	–	Cc1nc(NC(=O)CCl)sc1C [PCM-0102124]	47.2	32.2	66.1
0	0.12	0	0	C=CC(=O)Nc1ccccc1C [PCM-0103000]	–	–	–
0	0	0	–	C=CC(=O)N1C2CCC1CC(O)(Cc1ccc(F)cc1F)C2 (stereo not shown) [PCM-0102642]	102	92.5	103
–	0	0	–	C=CC(=O)N=C1N=C2C=CC(I)=CN2Cc2ccccc21 [PCM-0102846]	92.6	76.9	87.7
0	0.14	0	0.1	COc1cc2c(cc1OC)CN(C(=O)CCl)CC2 [PCM-0102317]	–	–	–
0	0	0	–	O=C(CCl)N(C1CC1)C1CCCc2ccccc21 (stereo not shown) [PCM-0102774]	5.8	4	5.8

BSA (BSA)	OTUB2 (OTUB2 (OTUB2A))	PCAF (PCAF)	NUDT7 (NUDT7)	SMILES	viability at 48 h, 10 µM (in vitro [1]) [%]	viability at 48 h, 10 µM (in vitro [2]) [%]	viability at 48 h, 10 µM (in vitro [3]) [%]
0	0	0	–	O=C(CCl)N1N=C(c2ccco2)CC1c1cccs1 (stereo not shown) [PCM-0102182]	14.9	2	18.2
0	0.13	0	–	O=C(CCl)NC1CCC2(CC1)OCCO2 [PCM-0102820]	107	111	96.8
0	0	0	–	CN(Cc1cccc(Cl)c1)C(=O)CCl [PCM-0102976]	18.9	31.2	67.9
0	0.21	0	0	NS(=O)(=O)c1ccc2c(c1)CCN2C(=O)CCl [PCM-0102229]	–	–	–
0	–	0	0	CC(=O)NC1CCCN(C(=O)CCl)C1 (stereo not shown) [PCM-0102934]	100	81.8	90
0	0.6	0	–	O=C(CCl)NCC#Cc1ccccc1 [PCM-0103007]	78.1	59.4	84.1
0	–	0.45	0.64	O=C(CCl)Nc1c(Cl)cccc1Cl [PCM-0102234]	96.3	101	77.5
0	0	0	0.18	O=C(CCl)N1c2ccccc2NC(=O)C12CCCC2 [PCM-0102159]	–	–	–
0	0	0	0	C=CC(=O)Nc1ccc(OC)cc1 [PCM-0103034]	–	–	–
0	–	0	0	C=CC(=O)NC1c2ccccc2CC12CCOCC2 (stereo not shown) [PCM-0102445]	103	111	106
0	–	0	0.24	Cc1cc(N2CCCC2)ccc1NC(=O)CCl [PCM-0102301]	47.9	40.7	78.6
0	0	0	0	C=CC(=O)Nc1cc(C)on1 [PCM-0102805]	–	–	–
0	0	0	0	C=CC(=O)NCc1ccc2cnn(C)c2c1 [PCM-0102947]	–	–	–
0.22	–	0	0	CN(C)c1ccc(NC(=O)CCl)cc1.Cl [PCM-0102859]	105	87	110
0	–	0	0	O=C(CCl)NC1CCC(C(F)(F)F)CC1 (stereo not shown) [PCM-0102864]	99.2	82.7	109
0	0.12	0	0.83	O=C(CCl)N1CCSC1c1ccccc1F (stereo not shown) [PCM-0102293]	–	–	–
0	–	0	0.21	Cc1cc(NC(=O)CCl)ccc1Br [PCM-0102770]	2.5	1.6	15.6
0	–	0	0	C=CC(=O)NC1(c2nc(C)cs2)CCOCC1 [PCM-0102601]	103	109	102
